Experimental findings from patent publication US12312355B2, “1H-[1, 2, 3]triazolo[4, 5-h] quinazoline compounds acting as protein kinase inhibitors” (CHENGDU CYNOGEN BIO-PHARMACEUTICAL TECHNOLOGY CO., LTD., priority 2019, dated 2025) are described below.

Common to all, as to assay type: biochemical
What all share (conditions): class symbols

The target of one assay is CDK6/cyclin D3 (Homo sapiens (Human), UniProt Q00534). Put plainly: Kinase activity assay, Caliper Mobility Shift Assay, CDK6/cyclin D3.
CDK6/cyclin D3, sequence (Q00534 whole entry, species assumed): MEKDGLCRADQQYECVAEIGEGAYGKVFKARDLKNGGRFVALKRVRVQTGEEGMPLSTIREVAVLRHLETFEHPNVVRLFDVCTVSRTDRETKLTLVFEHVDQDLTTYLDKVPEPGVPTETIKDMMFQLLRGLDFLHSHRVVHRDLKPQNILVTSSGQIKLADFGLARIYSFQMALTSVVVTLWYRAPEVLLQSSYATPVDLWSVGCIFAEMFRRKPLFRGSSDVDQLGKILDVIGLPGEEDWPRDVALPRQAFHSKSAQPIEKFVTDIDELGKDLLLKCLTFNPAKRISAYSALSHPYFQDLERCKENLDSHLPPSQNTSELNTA
CDK6/cyclin D3, sequence (P30281 whole entry partner, species assumed): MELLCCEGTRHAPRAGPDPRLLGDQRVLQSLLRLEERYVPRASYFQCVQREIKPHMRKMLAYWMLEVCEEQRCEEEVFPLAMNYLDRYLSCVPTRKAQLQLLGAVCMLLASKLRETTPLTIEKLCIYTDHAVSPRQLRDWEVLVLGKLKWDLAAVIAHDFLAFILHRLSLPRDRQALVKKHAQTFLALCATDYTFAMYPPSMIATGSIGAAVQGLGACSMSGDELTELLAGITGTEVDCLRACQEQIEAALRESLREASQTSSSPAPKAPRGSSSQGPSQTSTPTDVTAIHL
A further assay has as its target CDK2/cyclin A2 (Homo sapiens (Human), UniProt P24941). Put plainly: Kinase activity assay, Caliper Mobility Shift Assay, CDK2/cyclin A2. On the procedure: (§1) The inhibitory effect of the compound on the kinase CDK4/cyclin D3 was tested by the Caliper Mobility Shift Assay method. The final test concentration of the compound was 10 concentrations, which started from […] and were obtained by three-fold dilution. 5 μL of 5-fold final concentration compound and 10 μL of CDK4/Cyclin D3 kinase solution with final concentration of 10 nM were added to the 384-well reaction plate respectively, and pre incubated at room temperature for 10 minutes (the negative control well contained 10 μL kinase buffer and 5 μL 5% DMSO; the positive control well contained 10 μL kinase solution and 5 μL 5% DMSO). The mixture of 10 μL ATP with a final concentration of 250 μM and the corresponding substrate peptide was added to initiate the reaction, and the mixture was reacted at room temperature for 150 minutes. 30 μL of stop test solution containing EDTA was added to stop the kinase reaction. Conversion rate was read by Caliper EZ Reader. Conversion inhibition rate %=(average conversion rate of positive control %−sample conversion rate %)/(average conversion rate of positive control %−average conversion rate of negative control %). Wherein: the negative control well represents conversion rate reading of wells without enzyme activity; the positive control well represents conversion rate reading of wells without compound inhibition. The log value of concentration was taken as the X-axis and the percentage inhibition rate was the Y-axis. The dose-effect curve was fitted by log(inhibitor) vs. response—Variable slope of the analysis software GraphPad Prism 5, and the IC50 value of each compound on the enzyme activity was obtained. Calculation formula: Y=Bottom+(Top−Bottom)/(1+10^((Log IC50−X)*HillSlope)).
The IC50 values of the compounds of the present disclosure for CDK6/cyclin D3 and CDK2/cyclin A2 were tested in a similar manner.

A further assay deals with CDK4/cyclin D3 (Homo sapiens (Human), UniProt P11802). Kind of assay: Kinase activity assay, Caliper Mobility Shift Assay, CDK4/cyclin D3. On the procedure:
as §1, with “The dose-effect curve was fitted by log(inhibitor) vs. response—Variable slope of the analysis software GraphPad Prism 5, and the IC50 value of each compound on the enzyme activity was obtained.” left out

SMILES strings stand for the structures. Structures can show the parent of a compound that is named as a salt. Where only a bound is given, the exact number is not on record here.

CDK4/cyclin D3, sequence (P11802 whole entry, species assumed): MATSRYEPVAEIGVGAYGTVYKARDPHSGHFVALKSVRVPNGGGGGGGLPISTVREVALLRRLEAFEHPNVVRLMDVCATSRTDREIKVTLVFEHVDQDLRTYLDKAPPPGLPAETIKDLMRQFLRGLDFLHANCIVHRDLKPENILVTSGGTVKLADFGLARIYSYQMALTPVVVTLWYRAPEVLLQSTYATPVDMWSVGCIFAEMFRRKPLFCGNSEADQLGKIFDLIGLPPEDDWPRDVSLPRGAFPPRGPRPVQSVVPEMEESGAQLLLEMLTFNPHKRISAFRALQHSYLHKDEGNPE
CDK4/cyclin D3, sequence (P30281 whole entry partner, species assumed): as the sequence (P30281 whole entry partner, species assumed) above

On to `CC(C)n1nnc2ccc3cnc(Nc4ccc(N5CCC(CCCO)CC5)cc4)nc3c21` [Compound I-27, 3-(1-(4-((1-isopropyl-1H-[1,2,3]triazolo [4,5-h]quinazolin-8-yl)amino)phenyl)pi-peridin-4-yl)propan-1-ol], for which the IC50 at CDK6/cyclin D3, on CDK2/cyclin A2 and on CDK4/cyclin D3 was 50 to 100 nM each time.
On to `CC(C)n1nnc2ccc3cnc(Nc4ccc(N5CCOCC5)cc4)nc3c21` [Compound I-26, 1-Isopropyl-N-(4-morpholinophenyl)-1H-[1,2,3]triazolo[4,5-h]quinazolin-8-amine], for which the IC50 on CDK6/cyclin D3, on CDK2/cyclin A2 and at CDK4/cyclin D3 was less than 10 nM throughout.
For the compound `CC(C)n1nnc2ccc3cnc(Nc4ccc(C(=O)N5CCN(C)CC5)cc4)nc3c21` [Compound I-40], the IC50 at CDK6/cyclin D3, on CDK2/cyclin A2 and at CDK4/cyclin D3 was less than 10 nM throughout.
Regarding `CC(C)n1nnc2ccc3cnc(Nc4cccc(S(N)(=O)=O)c4)nc3c21` [Compound I-36, 3-((1-isopropyl-1H-[1,2,3]triazolo[4,5-h]quinazolin-8-yl)amino)benzenesulfonamide hydrochloride], the IC50 at CDK6/cyclin D3, on CDK2/cyclin A2 and at CDK4/cyclin D3 was less than 10 nM throughout.
Regarding `CC(C)n1nnc2ccc3cnc(Nc4ccc(N5CCNCC5)cc4F)nc3c21` [Compound I-28, N-(2-Fluoro-4-(piperazin-1-yl)phenyl)-1-isopropyl-1H-[1,2,3]triazolo[4,5-h]quin-azolin-8-amine hydrochloride], the IC50 on CDK6/cyclin D3, at CDK2/cyclin A2 and at CDK4/cyclin D3 was less than 10 nM each time.
Consider `CC(C)n1nnc2ccc3cnc(Nc4ccc(N5CCOCC5)c(F)c4)nc3c21` [Compound I-35, N-(3-Fluoro-4-morpholinophenyl)-1-iso-propyl-1H-[1,2,3]triazolo[4,5-h]quinazo-lin-8-amine hydrochloride], for which the IC50 on CDK6/cyclin D3, at CDK2/cyclin A2 and on CDK4/cyclin D3 was 10 to 50 nM throughout.

One may read the IC50 as the point on the concentration scale where inhibition reaches its midpoint.
